Assay: in vitro
Conditions: human, hela cells, % viability

Cc1ccc(-c2ccc3c(c2)COC2(CCNCC2)O3)c(C)c1 [CBK060881]
viability at 28.5 h, 10 µM (bulk resorufin, single well): 89.7%

CC(=O)N1CCC2(CC1)OCc1cc(-c3ccc(C)o3)ccc1O2 [CBK060889]
viability at 28.5 h, 10 µM (bulk resorufin, single well): 87.1%

Fc1cc(F)cc(-c2ccc3c(c2)COC2(CCNCC2)O3)c1 [CBK060915]
viability at 28.5 h, 10 µM (bulk resorufin, single well): 87.7%

c1cc2c(cc1-c1ccc3c(c1)COC1(CCNCC1)O3)CCO2 [CBK060920]
viability at 28.5 h, 10 µM (bulk resorufin, single well): 108%

c1cc2c(cc1-c1ccc3c(c1)OCO3)COC1(CCNCC1)O2 [CBK060925]
viability at 28.5 h, 10 µM (bulk resorufin, single well): 95.9%

c1ccc2c(-c3ccc4c(c3)COC3(CCNCC3)O4)cccc2c1 [CBK060951]
viability at 28.5 h, 10 µM (bulk resorufin, single well): 92.5%

CC(=O)c1ccc(-c2ccc3c(c2)COC2(CCN(C(C)=O)CC2)O3)s1 [CBK060967]
viability at 28.5 h, 10 µM (bulk resorufin, single well): 109%

CC(=O)N1CCC2(CC1)OCc1cc(-c3cccc4cccnc34)ccc1O2 [CBK060969]
viability at 28.5 h, 10 µM (bulk resorufin, single well): 88.4%

CC(=O)N1CCC2(CC1)OCc1cc(-c3ccc(Cl)cc3)ccc1O2 [CBK060974]
viability at 28.5 h, 10 µM (bulk resorufin, single well): 113%

CC(=O)N1CCC2(CC1)OCc1cc(-c3cnc4ccccc4c3)ccc1O2 [CBK060976]
viability at 28.5 h, 10 µM (bulk resorufin, single well): 93.8%

CS(=O)(=O)c1cccc(-c2ccc3c(c2)COC2(CCNCC2)O3)c1 [CBK060990]
viability at 28.5 h, 10 µM (bulk resorufin, single well): 94.4%

c1cc(-c2ccc3c(c2)COC2(CCNCC2)O3)c2cccnc2c1 [CBK060995]
viability at 28.5 h, 10 µM (bulk resorufin, single well): 104%

CC(=O)N1CCC2(CC1)OCc1cc(-c3ccccc3C#N)ccc1O2 [CBK061006]
viability at 28.5 h, 10 µM (bulk resorufin, single well): 100%

CN(C)c1ccc(C(=O)N2CCC3(CC2)OCc2cc(Cl)ccc2O3)cc1 [CBK061067]
viability at 28.5 h, 10 µM (bulk resorufin, single well): 87.8%

CSc1cc(C)c2c(c1)COC1(CCN(C(=O)Cc3ccccc3)CC1)O2 [CBK061099]
viability at 28.5 h, 10 µM (bulk resorufin, single well): 93.4%

CSc1cc(C)c2c(c1)COC1(CCN(C(=O)c3ccco3)CC1)O2 [CBK061106]
viability at 28.5 h, 10 µM (bulk resorufin, single well): 92.6%

O=C1NC(=O)C(CC(=O)N2CCC3(CC2)OCc2cc(-c4ccccc4)ccc2O3)N1 (centres unmarked) [CBK061111]
viability at 28.5 h, 10 µM (bulk resorufin, single well): 85.6%

CC(C)C(=O)N1CCC2(CC1)OCc1cc(Cl)ccc1O2 [CBK061121]
viability at 28.5 h, 10 µM (bulk resorufin, single well): 89.6%

COc1cccc2c1OC1(CCN(C(=O)c3cccn3C)CC1)OC2 [CBK061166]
viability at 28.5 h, 10 µM (bulk resorufin, single well): 85.1%

COc1cccc2c1OC1(CCN(C(=O)C3CCC3)CC1)OC2 [CBK061168]
viability at 28.5 h, 10 µM (bulk resorufin, single well): 85.4%

O=C(c1ccoc1)N1CCC2(CC1)OCc1ccccc1O2 [CBK061234]
viability at 28.5 h, 10 µM (bulk resorufin, single well): 94.7%

Cc1nocc1C(=O)N1CCC2(CC1)OCc1ccccc1O2 [CBK061470]
viability at 28.5 h, 10 µM (bulk resorufin, single well): 105%

CCNS(=O)(=O)c1ccc(Cn2nc(NC(=O)C3COc4ccccc4O3)c3ccccc32)cc1 (centres unmarked) [CBK061613]
viability at 28.5 h, 10 µM: 109%

CN1CCC2(CC1)NCCc1c2ccn1S(=O)(=O)c1cccc2c(N(C)C)cccc12 [CBK061633C]
viability at 28.5 h, 10 µM: 105%

CCN(C(=O)c1cnccn1)C(CC1CCCCC1)c1ccccc1 (centres unmarked) [CBK061638]
viability at 28.5 h, 10 µM: 92.9%

COc1ccc2[nH]c3c(c2c1)CCNC31CCN(C(=O)COc2ccccc2)C1 (centres unmarked) [CBK061661]
viability at 28.5 h, 10 µM: 88.8%

Cc1c(C(N)=O)sc2nc(C(F)(F)F)cc(N)c12 [CBK061693]
viability at 28.5 h, 10 µM: 97.1%

CN(C)c1ccnc2sc(C(N)=O)c(N)c12 [CBK061708]
viability at 28.5 h, 10 µM: 94%

O=C(Nc1cccc(C(F)(F)F)c1)Nc1cc(N2CCNCC2)c2occc2c1 [CBK061746C]
viability at 28.5 h, 10 µM: 91.4%

Cn1cc(CCCC(=O)NCCC2=CCCCC2)c2ccccc21 [CBK061756]
viability at 28.5 h, 10 µM: 99.2%

O=C(Nc1cc(N2CCNCC2)c2occc2c1)c1cccc(C(F)(F)F)c1 [CBK061762C]
viability at 28.5 h, 10 µM: 86.5%

CCNC(CO)c1ccccc1 (centres unmarked) [CBK061785]
viability at 28.5 h, 10 µM: 109%

Fc1ccc(OCCN2CCC3(C2)OCCc2c3[nH]c3ccccc23)cc1 (centres unmarked) [CBK061787]
viability at 28.5 h, 10 µM: 86.7%

Cc1ccc2[nH]cc(CCN3CCC4(C3)OCCc3c4[nH]c4ccccc34)c2c1 (centres unmarked) [CBK061790]
viability at 28.5 h, 10 µM: 84.7%

CC(=O)c1ccc(-c2ccc3ccc(N)nc3n2)cc1 [CBK061862]
viability at 28.5 h, 10 µM: 84.4%

Nc1ccc2ccc(-c3ccccc3)nc2n1 [CBK061865]
viability at 28.5 h, 10 µM: 97%

CC(C)(C)c1ccc(-c2ccc3ccc(N)nc3n2)cc1 [CBK061872]
viability at 28.5 h, 10 µM: 79.3%

CC(=O)c1ccc(-c2nc(NS(C)(=O)=O)cc3cccnc23)cc1 [CBK061874]
viability at 28.5 h, 10 µM: 96.3%

COc1cc(-c2nc(N)cc3cccnc23)cc(OC)c1OC [CBK061892]
viability at 28.5 h, 10 µM: 101%

CS(=O)(=O)Nc1ccc2cc(-c3ccccc3)cnc2n1 [CBK061899]
viability at 28.5 h, 10 µM: 91.2%

CN1CCC2(CC1)NCCc1c2ccn1S(=O)(=O)c1ccc(I)cc1 [CBK061945C]
viability at 28.5 h, 10 µM: 111%

Cc1nn(C)c(Cl)c1S(=O)(=O)Nc1nnc(C(F)(F)F)s1 [CBK062003]
viability at 28.5 h, 10 µM: 92%

O=S(=O)(Nc1nnc(C(F)(F)F)s1)c1ccc(Oc2ccccc2)cc1 [CBK062007]
viability at 28.5 h, 10 µM: 92.6%

O=S(=O)(Nc1nnc(C(F)(F)F)s1)c1csc2ccccc12 [CBK062009]
viability at 28.5 h, 10 µM: 95.9%

O=S(=O)(Nc1nnc(C(F)(F)F)s1)c1ccc(Br)cc1C(F)(F)F [CBK062013]
viability at 28.5 h, 10 µM: 96.7%

Cc1nnc(-c2cccc(S(=O)(=O)Nc3nnc(C(F)(F)F)s3)c2)o1 [CBK062014]
viability at 28.5 h, 10 µM: 99.1%

Cn1nc(-c2ccc(S(=O)(=O)Nc3nnc(C(F)(F)F)s3)s2)cc1C(F)(F)F [CBK062017]
viability at 28.5 h, 10 µM: 103%

O=S(=O)(Nc1nnc(C(F)(F)F)s1)c1ccc(-c2cc(C(F)(F)F)on2)s1 [CBK062019]
viability at 28.5 h, 10 µM: 91.1%

O=S(=O)(NC1CCN(Cc2ccccc2)CC1)c1ccc(-c2ccon2)s1 [CBK062038]
viability at 28.5 h, 10 µM: 93.5%

Cn1nccc1NS(=O)(=O)c1cccc2cccnc12 [CBK062069]
viability at 28.5 h, 10 µM: 98.9%

Cc1nn(C)c(Cl)c1S(=O)(=O)Nc1ccnn1C [CBK062072]
viability at 28.5 h, 10 µM: 85.6%

Cn1nccc1NS(=O)(=O)c1ccc(Br)cc1C(F)(F)F [CBK062082]
viability at 28.5 h, 10 µM: 104%

Cn1nccc1NS(=O)(=O)c1ccc(-c2cc(C(F)(F)F)on2)s1 [CBK062087]
viability at 28.5 h, 10 µM: 97.4%

O=S(=O)(Nc1ccc(C(O)(C(F)(F)F)C(F)(F)F)cc1)c1cccc2cccnc12 [CBK062092]
viability at 28.5 h, 10 µM: 91%

O=[N+]([O-])c1cccc(S(=O)(=O)Nc2ccc(C(O)(C(F)(F)F)C(F)(F)F)cc2)c1 [CBK062093]
viability at 28.5 h, 10 µM: 102%

O=S(=O)(Nc1ccc(C(O)(C(F)(F)F)C(F)(F)F)cc1)c1csc2ccccc12 [CBK062098]
viability at 28.5 h, 10 µM: 85.4%

O=[N+]([O-])c1cc(S(=O)(=O)Nc2ccc(C(O)(C(F)(F)F)C(F)(F)F)cc2)ccc1Cl [CBK062106]
viability at 28.5 h, 10 µM: 92.9%

Cc1noc(C)c1S(=O)(=O)NCc1ccc(C(F)(F)F)c(F)c1 [CBK062112]
viability at 28.5 h, 10 µM: 94.2%

O=S(=O)(NCc1ccc(C(F)(F)F)c(F)c1)c1cccc2nsnc12 [CBK062113]
viability at 28.5 h, 10 µM: 94.3%

CS(=O)(=O)Nc1cccc(-c2nnn[nH]2)c1 [CBK062150]
viability at 28.5 h, 10 µM: 90.4%

Cc1nn(C)c(Cl)c1S(=O)(=O)NCc1cc(C)n(C)n1 [CBK062154]
viability at 28.5 h, 10 µM: 94.5%

Cc1noc(C)c1S(=O)(=O)NCc1cc(C)n(C)n1 [CBK062155]
viability at 28.5 h, 10 µM: 103%

Cc1cc(CNS(=O)(=O)c2cccc3nonc23)nn1C [CBK062157]
viability at 28.5 h, 10 µM: 98.2%

CCc1nnc(NS(=O)(=O)c2c(C)nn(C)c2Cl)s1 [CBK062180]
viability at 28.5 h, 10 µM: 112%

CCc1nnc(NS(C)(=O)=O)s1 [CBK062197]
viability at 28.5 h, 10 µM: 93%

O=S(=O)(Nc1cc(Cl)nc(Cl)c1)c1ccc(-c2cc(C(F)(F)F)on2)s1 [CBK062215]
viability at 28.5 h, 10 µM: 90.9%

O=S(=O)(Nc1ccc2nsnc2c1)c1cccc(C(F)(F)F)c1 [CBK062221]
viability at 28.5 h, 10 µM: 106%

Cc1noc(C)c1S(=O)(=O)Nc1ccc2nsnc2c1 [CBK062223]
viability at 28.5 h, 10 µM: 90.4%

Cc1c(S(=O)(=O)Nc2ccc3nsnc3c2)cnn1-c1ccccc1 [CBK062229]
viability at 28.5 h, 10 µM: 87.6%

O=S(=O)(Nc1ccc2nsnc2c1)c1ccc(Br)cc1C(F)(F)F [CBK062233]
viability at 28.5 h, 10 µM: 115%

Cc1cc(CNS(=O)(=O)c2c(C)noc2C)no1 [CBK062261]
viability at 28.5 h, 10 µM: 91.4%

Cc1cc(CNS(=O)(=O)c2cccc3nonc23)no1 [CBK062263]
viability at 28.5 h, 10 µM: 106%

Cc1cc(CNS(=O)(=O)c2ccc(-c3ccon3)s2)no1 [CBK062276]
viability at 28.5 h, 10 µM: 103%

Cc1nn(C)c(Cl)c1S(=O)(=O)Nc1cccnc1N1CCOCC1 [CBK062286]
viability at 28.5 h, 10 µM: 99.5%

O=S(=O)(Nc1cccnc1N1CCOCC1)c1cc(C(F)(F)F)cc(C(F)(F)F)c1 [CBK062306]
viability at 28.5 h, 10 µM: 122%

Cc1cnc(CNS(=O)(=O)c2cnn(-c3ccccc3)c2C)cn1 [CBK062335]
viability at 28.5 h, 10 µM: 96.5%

Cc1cc(OC(F)(F)F)ccc1NS(=O)(=O)c1cnn(-c2ccccc2)c1C [CBK062354]
viability at 28.5 h, 10 µM: 91.1%

O=S(=O)(Nc1nnn[nH]1)c1cccc2nsnc12 [CBK062379]
viability at 28.5 h, 10 µM: 99%

O=S(=O)(Nc1nnn[nH]1)c1cccc2nonc12 [CBK062380]
viability at 28.5 h, 10 µM: 104%

O=S(=O)(Nc1nnn[nH]1)c1ccc(-c2ccccc2)cc1 [CBK062381]
viability at 28.5 h, 10 µM: 99.7%

O=S(=O)(Nc1nnn[nH]1)c1ccccc1Br [CBK062386]
viability at 28.5 h, 10 µM: 96.3%

O=S(=O)(Nc1nnn[nH]1)c1ccc(Cl)c(Cl)c1 [CBK062387]
viability at 28.5 h, 10 µM: 106%

O=S(=O)(Nc1nnn[nH]1)c1ccc(Br)cc1C(F)(F)F [CBK062388]
viability at 28.5 h, 10 µM: 104%

Cn1nc(-c2ccc(S(=O)(=O)Nc3nnn[nH]3)s2)cc1C(F)(F)F [CBK062390]
viability at 28.5 h, 10 µM: 94.4%

Cc1c(S(=O)(=O)Nc2nnn[nH]2)sc2ccc(Cl)cc12 [CBK062392]
viability at 28.5 h, 10 µM: 91.7%

O=S(=O)(Nc1nnn[nH]1)c1ccc(-c2cc(C(F)(F)F)on2)s1 [CBK062393]
viability at 28.5 h, 10 µM: 96.9%

O=S(=O)(c1csc2ccccc12)N1CCOCC1 [CBK062401]
viability at 28.5 h, 10 µM: 90.7%

CN1CCN(S(=O)(=O)c2ccc(Oc3ccccc3)cc2)CC1 [CBK062430]
viability at 28.5 h, 10 µM: 113%

CN1CCN(S(=O)(=O)c2ccc(N3CCOCC3)nc2)CC1 [CBK062434]
viability at 28.5 h, 10 µM: 87.9%

— PMC12040169 (PLOS Biology, 2025)
